How the values were obtained:
[1] = tested on: WEHI-231 cells; assay: Apoptosis / cell death of WEHI-231 (propidium iodide FACS, gel electrophoresis, DAPI); format: cell-based, murine; settings: 24 hours; chelerythrine 10 μM or calphostin C 250 nM
Method: Cells undergoing apoptosis also shrink in size.
Cells, 5×10^5, were centrifuged at 1000 rpm and resuspended in approximately 100 μl cell culture media. The cell suspension was then mixed with 100 μl of DAPI (4',6-iamidino-2-phenylindole, Sigma D9542, 1 μg/ml in PBT (PBS+1% Triton X-100)). One drop of this mixture was placed on a microslide with a coverslip. The cells were viewed by fluorescence microscopy using an Olympus BX-40 microscope with a 100 Watt Mercury lamp, a 16 or 40 X Fluorite objective, N.A. 0.75, (Leco #1-UB527) and a UV filter cube (ex 330-385 nm, em 420 nm, wide band pass, Leco #U-M536). Images were photographed using an Optronics cooled low-light video camera (Leco #DEI-470TB) to which was attached a 2X coupler (Leco #HR200-CMT). The image was saved to a digital file at 72 dpi.
DNA degradation was assessed as previously described (Gottschalk et al., 1993; 1994). Briefly, following treatment in 100 mm plates or 24 well plates, cells were collected and lysed in 0.5 ml lysis buffer (0.6% SDS+10 mM EDTA, pH 7.0). NaCl was added to a final concentration of 1M, mixed by inversion, incubated for 12 hours at 4° C. and then spun at 14,000 g for 30 minutes. Samples were treated with chloroform (1:1) and precipitated in ethanol prior to electrophoresis in a 3% agarose gel and visualized with ethidium bromide.

[2] = tested on: SQ-20B cells; assay: Viability by propidium iodide exclusion and FACS; settings: 2.5 μM chelerythrine and 8 Gy
Method: Cells, 2.5-3.5×10^5, were cultured in 24-well tissue culture plates for all experiments following standard procedures as previously described (Chmura et al., 1996a; 1996b). Cells were treated with varying concentrations of chelerythrine, incubated for 30 minutes at 37° C. and then irradiated. Radiation for all samples was delivered using a ^60 Co-irradiator (Gammacell 220, Atomic Energy of Canada) at a dose rate of 2.0 Gy/sec. After the indicated time points, cells were harvested, washed once in PBS, and resuspended in PBS containing […] propidium iodide. […] Cells undergoing apoptosis also shrink in size. Cells were analyzed via flow cytometry (FACS) following standard procedures as described in (Chmura et al., 1996a; 1996b) on a FACScan (Becton-Dickson) using Lysis II software.

[3] = tested on: WEHI-231 cells; assay: Ceramide production by DAG kinase assay; format: cell-based, murine; settings: Mus musculus, WEHI231, 0.5 h; 10 μM chelerythrine, approximately 30 minutes; read-out: ceramide generation increase
Method: FIG. 7A. Inhibition of PKC causes an increase in ceramide production through the activation of a neutral sphingomyelinase and decreases in sphingomyelin levels. Ceramide production was quantitated using the DAG kinase assay for WEHI-231 JM cells and total lipid extraction was used to assay sphingomyelin mass. Following addition of 10 μM chelerythrine, cells were lysed at the appropriate time points as described herein. Each data point represents the average percentage change in ceramide or sphingomyelin generation from baseline derived from at least 8 independent studies for all time points with the exception of those marked with * (n=4). Standard deviations depicted by error bars.
FIG. 7B. […] Ceramide production and sphingomyelin mass was quantitated identical to that for chelerythrine. Cells were lysed 2 hours following the addition of 250 nM calphostin C. […]
Quantitation of ceramide by diacylglycerol kinase was similar to that described by Dressler and Kolesnick (1990). […] Data was calculated as pmoles of ceramide/10^6 cells by scintillation counting. […]
In order to test whether PKC inhibition alters ceramide production, the DAG kinase assay was used to quantify intracellular ceramide following chelerythrine and calphostin C treatment (Dressler and Kolesnick, 1990; Preiss et al., 1986). […]

SMILES: COc1ccc2c(c[n+](C)c3c4cc5c(cc4ccc23)OCO5)c1OC [chelerythrine, 1,2-dimethoxy-12-methyl[1,3]benzodioxolo[5,6-c]phenanthridinium]
- cell death [1]: greater than 90%
- decrease in cell survival [2]: 85%
- activation at 10 µM [3]: 100%
